What was measured:
[1] = target: HIV-1 protease (Human immunodeficiency virus type 1 group M subtype B, UniProt P03369); assay: biochemical; settings: for IC50: HIV-1 Protease IC50 (μM) 1M NaCl
[2] = target: T1, HIV-2 protease (Human immunodeficiency virus type 2 subtype A, UniProt P04584); assay: biochemical; settings: 1M NaCl
T1 construct: the coding region of the 99-amino acid protease; made in house; host or cells: Saccharomyces cerevisiae strain AB110, plasmid pHIV2PR115
Procedure: The decapeptide was synthesized by conventional solid-state methods. Reactions were carried out and fractionated by HPLC. Conversion of the decapeptide to the two pentapeptides was quantitated by integration of the peak areas and comparison to product standard curves.
Enzymatic Inhibition. […] Each data point was done in triplicate and initial enzyme rates were fit to the Michaelis-Menten equation using a nonlinear regression program ("Enzfitter" from Biosoft).

[3] = physchem
[4] = in vitro
Procedure: Cytotoxicity. The MTT assay was performed as follows:
The cells were seeded in 96-well plates and grown overnight to near 50% confluency. A serial dilution (1 to 500 μM) of each compound in culture media was prepared and 250 μL/well was added in duplicate. The cells were allowed to grow for various periods of time (6, 24, 48 hours) and any precipitation of compounds in the wells was noted. The assay was performed by removing 200 μL of the culture media and adding 25 μL of MTT solution (2 mg/mL in phosphate buffered saline (PBS)). This was incubated for 4 hours at 37° C. and live cells began to turn purple while the solution remained yellow. To quench the reaction and solubilize the reaction product, 160 μL of acidified isopropanol (4 mL 1N HCl for 96 mL alcohol) were added and the resulting mixture was mixed vigorously to dissolve purple crystals. Absorbance was determined at 550-570 nm on an ELISA plate reader within 0.5-2 hours. […] To obtain the LD50 values for each compound, the concentration at which the absorbance is haft of that for the untreated cells was determined.

T1 sequence (P04584 514-612 limits assumed): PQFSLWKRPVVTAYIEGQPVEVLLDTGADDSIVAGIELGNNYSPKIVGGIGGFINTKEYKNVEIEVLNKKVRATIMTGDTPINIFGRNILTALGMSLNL

SMILES	HIV-1 Protease Therapeutic Index (LD50 /IC50) [1]	IC50 [1]	IC50 [2]	solubility [3]	CC50 at 6 h [4]	CC50 at 4 h [4]
O=C(CCCN1CCC(O)(c2ccccc2)CC1)c1ccccc1 [UCSF34, 4-(4-phenyl-4-hydroxypiperidinyl)butyrophenone]	> 1.25	400 µM	288 µM	> 500 µM	> 500 µM	–
O=C(CCCN1CCC(O)(c2ccc(Cl)cc2)CC1)c1ccc(-c2ccccc2)cc1 [UCSF36, 4-[4-(p-chlorophenyl)-4-hydroxypiperidinyl]-4'-phenylbutyrophenone]	1.4	32 µM	53 µM	< 50 µM	50 µM	–
C=C(CCCN1CCC(O)(c2ccc(Cl)cc2)CC1)c1ccc(F)cc1 [UCSF37, 1-[4-(4-chlorophenyl)-4-hydroxypiperidinyl]-4-(4-fluorophenyl)-4-pentene]	1.3	39 µM	34 µM	< 200 µM	50 µM	–
CSCC(O)(CCCN1CCC(O)(c2ccc(Cl)cc2)CC1)c1ccc(F)cc1 (stereo not drawn) [UCSF39, 5-[4-(4-chlorophenyl)-4-hydroxypiperidinyl]-2-(4-fluorophenyl)pentan-2-ol-1-methylsulfide]	1.2	75 µM	135 µM	> 500 µM	90 µM	–
C=CC(O)(CCCN1CCC(O)(c2ccc(Cl)cc2)CC1)c1ccc(F)cc1 (stereo not drawn) [UCSF40, 6-[4-(4-chlorophenyl)-4-hydroxypiperidinyl]-3-(4-fluorophenyl)hex-1-en-3-ol]	1.25	80 µM	200 µM	< 100 µM	100 µM	–
Cc1ccc(C(=O)CC(CN2CCC(O)(c3ccc(Cl)cc3)CC2)c2ccccc2)cc1 (stereo not drawn) [UCSF43, 4-[4-(p-chlorophenyl)-4-hydroxypiperidinyl]-3-phenyl-4'-methylbutyrophenone]	7(1)	50 µM	27 µM	> 500 µM	350 µM	–
Cc1ccc(C(=O)CCC(c2ccccc2)N2CCC(O)(c3ccc(Cl)cc3)CC2)cc1 (stereo not drawn) [UCSF44, 4-[4-(p-chlorophenyl)-4-hydroxypiperidinyl]-4-phenyl-4'-methylbutyrophenone]	5.7(0.7)	35 µM	43 µM	< 25 µM	200 µM	–
OC1(c2ccc(Cl)cc2)CCN(CCN(Cc2ccccc2)Cc2ccccc2)CC1 [UCSF46, 2-[4-(4-chlorophenyl)-4-hydroxypiperidinyl]-(N,N-dibenzyl)ethylamine]	0.7	30 µM	34 µM	> 500 µM	20 µM	–
OC1(c2ccc(Cl)cc2)CCN(CCC[Si](c2ccccc2)(c2ccccc2)c2ccccc2)CC1 [UCSF47, (3-[4-(4-chlorophenyl)-4-hydroxypiperidinyl)-1-propyl)triphenylsilane]	0.2	90 µM	1.5 µM	> 500 µM	15 µM	–
OC1(c2ccc(Cl)cc2)CCN(CCCC2(c3ccccc3)OCCO2)CC1 [UCSF49]	1.2	100 µM	180 µM	< 50 µM	120 µM	–
CC(CCN1CCC(O)(c2ccc(Cl)cc2)CC1)C(=O)c1ccc(F)cc1 (stereo not drawn) [UCSF50]	–	100 µM	126 µM	> 500 µM	90 µM	–
O=C(CCCN1CCC(O)(c2ccc(Cl)cc2)CC1)c1ccccc1-c1ccccc1 [UCSF51, 4-(4-(p-chlorophenyl)-4-hydroxypiperidinyl)-2'-phenylbutyrophenone]	–	40 µM	68 µM	< 250 µM	45 µM	–
O=C(CCCN1CCC(O)(c2ccc(Cl)cc2)CC1)c1cccc(-c2ccccc2)c1 [UCSF52, 4-(4-(p-chlorophenyl)-4-hydroxypiperidinyl)-3'-phenylbutyrophenone]	0.5	20 µM	19 µM	< 250 µM	10 µM	–
OC1(c2ccc(Cl)cc2)CCN(CCCNCc2ccccc2)CC1 [UCSF55, 3-[4-(4-chlorophenyl)-4-hydroxypiperidinyl]-N-(benzyl)propylamine]	< 0.02	2500 µM	> 2500 µM	> 500 µM	–	60 µM
OC1(c2ccc(Cl)cc2)CCN(CCCC(O)(c2ccccc2)c2ccccc2-c2ccccc2)CC1 (stereo not drawn) [UCSF56]	–	20 µM	11 µM	< 500 µM	–	20 µM
OC1(c2ccc(Cl)cc2)CCN(CCCC(O)(c2ccccc2)c2cccc(-c3ccccc3)c2)CC1 (stereo not drawn) [UCSF57, 4-(4-(p-chlorophenyl)-4-hydroxypiperidinyl)-1-phenyl-1-(3'-phenylphenyl)-butan-1-ol]	–	10 µM	14 µM	< 500 µM	–	25 µM
COCCN(CCN1CCC(O)(c2ccc(Cl)cc2)CC1)Cc1ccccc1 [UCSF58, 2-[4-(4-chlorophenyl)-4-hydroxypiperidinyl]-N-benzyl-N-(2-methoxyethyl)ethylamine]	< 0.3	300 µM	290 µM	> 500 µM	–	110 µM
OC1(c2ccc(Cl)cc2)CCN(CCCC2(c3cccc(-c4ccccc4)c3)SCCS2)CC1 [UCSF59]	–	8 µM	7 µM	< 500 µM	–	45 µM
O=C(CCCN1CCC(CO)(c2ccccc2)CC1)c1ccc(F)cc1 [UCSF60]	> 0.2	2500 µM	> 2500 µM	> 500 µM	–	> 500 µM
OC1(c2ccc(Cl)cc2)CCN(CCCN(CCc2ccccc2)Cc2ccccc2)CC1 [UCSF61, 3-[4-(4-chlorophenyl)-4-hydroxypiperidinyl]-N-benzyl-N-(2-phenyl-ethyl)-propylamine]	0.2-0.4	220 µM	230 µM	< 500 µM	40 µM	–
O=C(CCCN1CCC(O)(c2ccc(Cl)cc2)CC1)c1ccccc1 [UCSF62]	–	100 µM	40 µM	< 250 µM	380 µM	–
OC1(c2ccc(Cl)cc2)CCN(CCCN(Cc2ccccc2)Cc2ccc(-c3ccccc3)cc2)CC1 [UCSF63]	–	18 µM	15 µM	> 500 µM	25 µM	–
O=C(Cc1ccccc1)N(CCCN1CCC(O)(c2ccc(Cl)cc2)CC1)Cc1ccccc1 [UCSF66]	0.3	70 µM	48 µM	< 250 µM	25 µM	–
O=C(CCC[N+]1([O-])CCC(O)(c2ccc(Cl)cc2)CC1)c1cccc(-c2ccccc2)c1 (stereo not drawn) [UCSF67]	0.3	80 µM	10 µM	> 25 µM	> 25 µM	–
C#CCC(CCN1CCC(O)(c2ccc(Cl)cc2)CC1)C(=O)c1ccc(F)cc1 (stereo not drawn) [UCSF68]	–	105 µM	48 µM	< 500 µM	100 µM	–

Source: patent US5583000A, “Protease-binding compounds and methods of use” (priority 1993, dated 1996)
